This is an account of results in patent US4983608A, “N-substituted-4-pyrimidinamines and pyrimidinediamines” (Hoechst-Roussell Pharmaceuticals, Inc., priority 1989, dated 1991).

Each structure is given as a SMILES string.

What all share (type): in vivo
Experiment [1] concerns phenyl-para-quinone writhing. As to the kind of experiment: phenyl-para-quinone writhing assay in mice (analgesia). The settings on record: Mus musculus, sc, 20 mg/kg s.c., read-out: Analgesic Activity % Inhibition of Writhing at a Screening Dose of 20 mg/kg s.c. How it is done: Exptl. Biol. Med., 95, 729 (1957)]. Presented in Table I is the analgesic effect of some of the compounds of the invention, expressed as the percent decrease in writhing at a given dose (20 mg/kg s.c.).

In experiment [2] the test system is Scopolamine Induced Memory Deficit. Briefly: Dark Avoidance Assay (reversal of scopolamine induced memory deficit). The settings on record: mice, retest after 24 hours. How it is done:
The N-substituted-4-pyrimidinamines and pyrimidinediamines of the present invention are also useful in the treatment of various memory dysfunctions such as Alzheimer's disease.
In this assay, mice are tested for their ability to remember an unpleasant stimulus for a period of 24 hours. A mouse is placed in a chamber that contains a dark compartment; a strong incandescent light drives it to the dark compartment, where an electric shock is administered through metal plates on the floor. The animal is removed from the testing apparatus and tested again, 24 hours later, for the ability to remember the electric shock.
If scopolamine, an anticholinergic that is known to cause memory impairment is administered before an animal's initial exposure to the test chamber, the animal re-enters the dark compartment shortly after being placed in the test chamber 24 hours later. This effect of scopolamine is blocked by an active test compound, resulting in a greater interval before re-entry into the dark compartment.
The results for an active compound are expressed as the percent of a group of animals in which the effect of scopolamine is blocked, as manifested by an increased interval between being placed in the test chamber and re-entering the dark compartment.

Experiment [3] relates to phenyl-para-quinone writhing. Briefly: phenyl-para-quinone writhing assay in mice (analgesia). The settings on record: 3.9 mg/kg s.c. (standard).

As to `CCCN(c1ncncc1C#N)n1ccc2ccccc21` [5-Cyano-N-(1H-indol-1-yl)-N-propyl-4-pyrimidinamine], the inhibition in vivo at 20 mg/kg in experiment [1] is 75%.

For the compound `CN(c1ccnc(Cl)n1)n1cccc1` [2-Chloro-N-methyl-N-(1H-pyrrol-1-yl)-4-pyrimidinamine], in experiment [1], the inhibition in vivo at 20 mg/kg amounted to 38%. As for `c1ccc2c(c1)c1ccccc1n2Nc1ccncn1` [N-(pyrimidin-4-yl)-9H-carbazol-9-amine, N-(Pyrimidin-4-yl)-9H-carbazol-9-amine], the inhibition in vivo at 20 mg/kg in experiment [1] was determined as 65%. With `Cc1cn(Nc2cc(Nn3cc(C)c4ccccc43)ncn2)c2ccccc12` [N,N'-bis(3-methyl-1H-indol-1-yl)-4,6-pyrimidinediamine], the inhibition in vivo at 20 mg/kg in experiment [1] is 33%. Still for that read-out and setting: the figure for `c1ccn(Nc2ccncn2)c1` [N-(1H-pyrrol-1-yl)-4-pyrimidinamine, N-(1H-Pyrrol-1-yl)-4-pyrimidinamine] is 30%.

Regarding `Cc1cn(Nc2ccncn2)c2ccccc12` [N-(3-methyl-1H-indol-1-yl)-4-pyrimidinamine], in experiment [2] (1.25 mg/kg s.c. by body weight), the “% of Animals with Scopolamine Induced Memory Deficit Reversed” value (“% of Animals” below) amounted to 20%.

`CCCN(c1cc(Cl)ncn1)n1ccc2ccccc21` [6-Chloro-N-(1H-indol-1-yl)-N-propyl-4-pyrimidinamine]: the inhibition in vivo at 20 mg/kg in experiment [1] is 40%. Further, the “% of Animals” value in experiment [2] (1.25 mg/kg s.c. by body weight) is 47%.

Take `CN(c1cc(Cl)ncn1)n1cccc1` [6-Chloro-N-methyl-N-(1H-pyrrol-1-yl)-4-pyrimidinamine]: the inhibition in vivo at 20 mg/kg in experiment [1] turned out to be 42%.

For the compound `Cc1cn(Nc2cc(Cl)ncn2)c2ccccc12` [6-Chloro-N-(3-methyl-1H-indol-1-yl)-4-pyrimidinamine], in experiment [1], the inhibition in vivo at 20 mg/kg came out at 45%. For the same compound, the “% of Animals” value in experiment [2] (1.25 mg/kg s.c. by body weight) stood at 33%. `CCC(=O)O[C@](Cc1ccccc1)(c1ccccc1)[C@H](C)CN(C)C` [Propoxyphene]: the “Analgesic Activity % Inhibition of Writhing” value in experiment [3] is 50%. `CCCN(c1ccncn1)n1cc(C)c2ccccc21` [N-(3-methyl-1H-indol-1-yl)-N-propyl-4-pyrimidinamine]: in experiment [1], the inhibition in vivo at 20 mg/kg was found to be 60%.

As for `CCCN(c1cc(Cl)ncn1)n1cccc1` [6-Chloro-N-propyl-N-(1H-pyrrol-1-yl)-4-pyrimidinamine], the inhibition in vivo at 20 mg/kg in experiment [1] is 46%. As to `N#Cc1cncnc1Nn1ccc2ccccc21` [5-Cyano-N-(1H-indol-1-yl)-4-pyrimidinamine], the inhibition in vivo at 20 mg/kg in experiment [1] is 44%. Further, the “% of Animals” value in experiment [2] (1.25 mg/kg s.c. by body weight) is recorded as 27%. With `CCCN(c1cc(Cl)ncn1)n1cc(C)c2ccccc21` [6-Chloro-N-(3-methyl-1H-indol-1-yl)-N-propyl-4-pyrimidinamine], the inhibition in vivo at 20 mg/kg in experiment [1] is 36%. Take `CC[C@@H]1C(=O)OC[C@@H]1Cc1cncn1C` [Pilocarpine, reference compound]: in experiment [2] (5.00 mg/kg s.c. by body weight (standard)), the “% of Animals” value stood at 23%. As to `Clc1cc(Nn2cccc2)ncn1` [6-Chloro-N-(1H-pyrrol-1-yl)-4-pyrimidinamine], in experiment [1], the inhibition in vivo at 20 mg/kg was determined as 39%. Consider `CCCN(c1ccncn1)n1ccc2ccccc21` [N-(1H-Indol-1-yl)-N-propyl-4-pyrimidinamine], for which the inhibition in vivo at 20 mg/kg in experiment [1] was determined as 58%. The “% of Animals” value in experiment [2] (1.25 mg/kg s.c. by body weight) is recorded as 27%.
